Measurements taken from PubChem BioAssay AID2060495 (Molecular Pharmacology Branch, DTP, NCI, 2025).

Test system: 521955-158-R2-J5-PDC complex spheroid viability
Experiment: Anticancer human tumor 521955-158-R2-J5-PDC patient-derived pancreatic carcinoma cell line growth inhibition [GQUAD]
Conditions: for IC50: curve of first compound; for viability, T/C: stronger effect = lower value; active = viability on the fitted dose curve at most 10% of control; inactive = the rest
Procedure, shortened: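 Viability of tumor cells grown as complex spheroids with endothelial and stromal cells, exposed to drug combinations. Top concentration at or near clinical Cmax (else 10 microM), diluted in half-log increments.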
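Note: spheroids exposed to agents for one week before reading.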
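Throughout, for viability, T/C: 100% = DMSO vehicle control viability.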

Cn1ncnc1[C@H]1c2n[nH]c(=O)c3cc(F)cc(c23)N[C@@H]1c1ccc(F)cc1 + Cc1[nH]c2ccc(F)cc2c1-c1nc2c3cccnc3c3ncccc3c2[nH]1
inactive: viability, T/C (second compound 0.0316 µM, first compound 0.000999 µM) 95.7% | viability, T/C (second compound 0.0316 µM, first compound 0.00316 µM) 86.3% | viability, T/C (second compound 0.0316 µM, first compound 0.00999 µM) 93.5% | viability, T/C (second compound 0.0316 µM, first compound 0.0316 µM) 91% | viability, T/C (second compound 0.0316 µM, first compound 0.0999 µM) 73.2% | viability, T/C (second compound 0.0316 µM, first compound 0.316 µM) 59.8% | viability, T/C (second compound 0.1 µM, first compound 0.000999 µM) 89.4% | viability, T/C (second compound 0.1 µM, first compound 0.00316 µM) 106% | viability, T/C (second compound 0.1 µM, first compound 0.00999 µM) 90.9% | viability, T/C (second compound 0.1 µM, first compound 0.0316 µM) 80.4% | viability, T/C (second compound 0.1 µM, first compound 0.0999 µM) 91.1% | viability, T/C (second compound 0.1 µM, first compound 0.316 µM) 74.4% | viability, T/C (second compound 0.316 µM, first compound 0.000999 µM) 94.3% | viability, T/C (second compound 0.316 µM, first compound 0.00316 µM) 96% | viability, T/C (second compound 0.316 µM, first compound 0.00999 µM) 83.6% | viability, T/C (second compound 0.316 µM, first compound 0.0316 µM) 88.7% | viability, T/C (second compound 0.316 µM, first compound 0.0999 µM) 70.4% | viability, T/C (second compound 0.316 µM, first compound 0.316 µM) 73.1% | viability, T/C (second compound 1 µM, first compound 0.000999 µM) 91.7% | viability, T/C (second compound 1 µM, first compound 0.00316 µM) 93.7% | viability, T/C (second compound 1 µM, first compound 0.00999 µM) 91% | viability, T/C (second compound 1 µM, first compound 0.0316 µM) 74.2% | viability, T/C (second compound 1 µM, first compound 0.0999 µM) 102% | viability, T/C (second compound 1 µM, first compound 0.316 µM) 73.6% | viability, T/C (second compound 3.16 µM, first compound 0.000999 µM) 93% | viability, T/C (second compound 3.16 µM, first compound 0.00316 µM) 107% | viability, T/C (second compound 3.16 µM, first compound 0.00999 µM) 83.9% | viability, T/C (second compound 3.16 µM, first compound 0.0316 µM) 86.8% | viability, T/C (second compound 3.16 µM, first compound 0.0999 µM) 70.8% | viability, T/C (second compound 3.16 µM, first compound 0.316 µM) 69.8% | viability, T/C (second compound 10 µM, first compound 0.000999 µM) 92.7% | viability, T/C (second compound 10 µM, first compound 0.00316 µM) 80.5% | viability, T/C (second compound 10 µM, first compound 0.00999 µM) 82.6% | viability, T/C (second compound 10 µM, first compound 0.0316 µM) 86.1% | viability, T/C (second compound 10 µM, first compound 0.0999 µM) 77.8% | viability, T/C (second compound 10 µM, first compound 0.316 µM) 68.1%
> 316 nM: IC50 (second compound 0.0316 µM) | IC50 (second compound 0.1 µM) | IC50 (second compound 0.316 µM) | IC50 (second compound 1 µM) | IC50 (second compound 3.16 µM) | IC50 (second compound 10 µM)
